This passage reports logP and logP value results from patent US8757784B2, “Ink for ink jet recording and recording method” (Seiko Epson Corporation, priority 2012, dated 2014).

The logP is a log measure of how a compound divides between an organic and an aqueous phase. A higher logP goes with a more lipophilic compound.

A short description of one data set: physchem.
Details: not given
An excerpt: Herein, the “logP value” is an index that represents hydrophobicity of a compound. The logP value represents, in an octanol/water system, in which ratio a solute is distributed in these two layers. In other words, when the logP value of the solute is bigger, the hydrophobicity is higher and the solute is well dissolved in an octanol phase.
For example, the logP value can be determined using a flask shaking method using the solute and two types of solvents being actually placed in a flask and mixed by shaking the flask well, or a HPLC method using a high performance liquid chromatography (HPLC).
On to `CC(O)C(C)O` (stereo not shown) [2,3-butanediol], for which the lipophilicity (logP) was -0.36. Consider `OCCCCO` [1,4-butanediol], for which the lipophilicity (logP) came out at 0.5 and the logP value came out at 0.50.

For the molecule `CC(C)C(O)C(C)(C)CO` (stereo not shown) [2,2,4-trimethyl-1,3-pentanediol], the logP was 2.

The same data set, now with this note: octanol/water system.
Consider `OCCCO` [1,3-propanediol], for which the logP value is on record as −1.33.

Molecule `CCC(CO)(CO)CO` [trimethylol propane] had a logP value of −0.47. Still for that read-out and setting: for `OCC(O)CO` [glycerin] the value was −2.70.

Staying with this data set, now noted: octanol/water, logP value, octanol/water system.
Turning to `CC(CO)CO` [2-methyl-1,3-propanediol], the logP is -0.6. The same measure, in the same setting: for `CC(CCO)CCO` [3-methyl-1,5-pentanediol] the value was -0.2. With `CC(C)(CO)CO` [2,2-dimethyl-1,3-propanediol], the logP is -0.3.

In the case of `CC(O)CC(C)(C)O` (stereo not shown) [2-methyl-2,4-pentanediol], the logP is 0.88. The same measure, in the same setting: for `CC(C)(O)CO` [2-methyl-1,2-propanediol] the value was 0.026; for `CCCCC(O)CO` (stereo not shown) [1,2-hexanediol], 0.5. The molecule `CC(O)CO` (stereo not shown) [propylene glycol] came in with a logP of -0.92. Still for that read-out and setting: for `CCCC(=O)OCC(O)CO` (stereo not shown) [1-butanoyl glycerol] the value was 0; for `CC(O)CCC(C)O` (stereo not shown) [2,5-hexanediol], 0.62; for `CCC(O)CO` (stereo not shown) [1,2-butanediol], -0.32. Still for that read-out and setting: for `CCC(O)CCO` (stereo not shown) [1,3-pentanediol] the value was -0.16; for `CCCCC(CC)(CO)CO` [2-butyl-2-ethyl-1,3-propanediol], 2.1; for `CCCC(O)CO` (stereo not shown) [1,2-pentanediol], 0.01. Same read-out and setting: for `CC(C)(O)CCC(C)(C)O` [2,5-dimethyl-2,5-hexanediol] the value was 1.53; for `CC(C)(O)CCO` [3-methyl-1,3-butanediol], -0.33.
